# Measured values from patent US11452728B2, “7-aminocephalosporanic acid derivative as inhibitor of IL15 and IL-2 activity” (Warszawski Uniwersytet Medyczny, priority 2013, dated 2022).
# Columns and labels:
# IL-15-stimulated PBMC = test: IL-15-induced PBMC proliferation (BrdU Cell Proliferation Assay); assay type: cell-based, human; settings: IL-15 5 ng/ml; Cefazolin 20, 100, 300 μM; 4 days; repeated three times, different donors
# Protocol: (§5) All experiments were carried out on peripheral blood mononuclear cells (PBMC) from healthy donors. The cells were isolated under the standard protocol regarding density gradient centrifugation. According to the general protocol, 6 ml of blood was layered on 3 ml of Lymphoprep (Axis-shield, Norway), then centrifuged at 800×g for 15 min. The layer of PBMC was collected, the cells were washed twice with phosphate buffered saline (PBS) (BIOMED-LUBLIN, Poland) and suspended in medium RPMI1640 (Gibco, Great Britain), containing 10 mM HEPES (Sigma, USA), 10% fetal calf serum (BIOMED-LUBLIN, Poland) and antibiotic (streptomycin sulfate, penicillin G sodium; amphotericin B, PAA, Austria). In all the in vitro experiments non-stimulated PBMC were used as the control. The inhibition efficacy was assessed in relation to the cells stimulated with IL-15 or IL-2. PBMC proliferation was evaluated using commercially available BrdU Cell Proliferation Assay (Calbiochem, Merck, Germany). PBMC were seeded in a 96-well plate (25×10^3 cells in 200 μL of the culture medium/well). The next day the cells were treated with the tested compound at final concentrations: 20 μM, 100 μM and 300 μM. […] The results are expressed as the percentage change of proliferating cells with regard to the control cells stimulated with IL-15 or IL-2. […]
# IL-2-stimulated PBMC = test: IL-2-induced PBMC proliferation (BrdU Cell Proliferation Assay); assay type: cell-based, human; settings: IL-2 5 ng/ml; Cefazolin 20, 100, 300 μM; 4 days; repeated three times, different donors
# Protocol: as §5
# [1] = test system: IL-15-induced TNF-α synthesis in PBMC; test: IL-15-induced TNF-α synthesis in PBMC (ELISA); assay type: cell-based, human; settings: IL-15 5 ng/ml; 48 h; Cefazolin 20-1000 μM; vs IL-15 stimulated control cells
# Protocol: (§1) All experiments were carried out on peripheral blood mononuclear cells (PBMC) from healthy donors. The cells were isolated under the standard protocol regarding density gradient centrifugation. According to the general protocol, 6 ml of blood was layered on 3 ml of Lymphoprep (Axis-shield, Norway), then centrifuged at 800×g for 15 min. The layer of PBMC was collected, the cells were washed twice with phosphate buffered saline (PBS) (BIOMED-LUBLIN, Poland) and suspended in medium RPMI1640 (Gibco, Great Britain), containing 10 mM HEPES (Sigma, USA), 10% fetal calf serum (BIOMED-LUBLIN, Poland) and antibiotic (streptomycin sulfate, penicillin G sodium; amphotericin B, PAA, Austria).
# (§2) In all the in vitro experiments non-stimulated PBMC were used as the control. The inhibition efficacy was assessed in relation to the cells stimulated with IL-15 or IL-2. […]
# (§3) The PBMC were seeded in a 24-well plate (2×10^6 cells in 1 ml of the culture medium/well), treated with the tested compound and after 30 min stimulated with IL-15 (5 ng/ml) or IL-2 (5 ng/ml). After 48 h incubation, the culture medium was collected from each well to determine the TNF-α concentration, cells were harvested and lysed, and the concentration of total protein was measured in cell lysates. The obtained values of TNF-α concentration were calculated for 1 mg of protein. […]
# [2] = test system: IL-2-induced TNF-α synthesis in PBMC; test: IL-2-induced TNF-α synthesis in PBMC (ELISA); assay type: cell-based, human; settings: IL-2 5 ng/ml; 48 h; Cefazolin 300 μM; vs IL-2 stimulated control cells
# Protocol: as §1, §2, §3
# [3] = test system: IL-15-induced IL-17 synthesis in PBMC; test: IL-15-induced IL-17 synthesis in PBMC (ELISA); assay type: cell-based, human
# Protocol: as §1, §2
# (§4) PBMC were seeded in a 24-well plate (2×10^6 cells in 1 ml of the culture medium/well), treated with the inhibitor, after 30 min. stimulated with IL-15 (5 ng/ml) or IL-2 (5 ng/ml). After 48 hr incubation, the culture medium was collected from each well to determine the IL-17 concentration, cells were harvested and lysed, and the concentration of total protein was measured in cell lysates. The obtained values of IL-17 concentration were calculated for 1 mg of protein. […]
# [4] = test system: IL-2-induced IL-17 synthesis in PBMC; test: IL-2-induced IL-17 synthesis in PBMC (ELISA); assay type: cell-based, human; settings: IL-2 5 ng/ml; 48 h; Cefazolin 300 μM
# Protocol: as §1, §2, §4
# Gram-positive bacteria = settings: cited from earlier work
# [5] = cited from earlier work
smiles,measurement,setting,value
Cc1nnc(SCC2=C(C(=O)O)N3C(=O)[C@@H](NC(=O)Cn4cnnn4)[C@H]3SC2)s1 [Cefazolin],effect on IL-15-induced PBMC proliferation,IL-15-stimulated PBMC,inhibits
same,effect on IL-2-induced PBMC proliferation,IL-2-stimulated PBMC,inhibits
same,effect on IL-15-induced TNF-α synthesis in PBMC,[1],significantly reduces
same,effect on IL-2-induced TNF-α synthesis in PBMC,[2],significantly reduces
same,effect on IL-15-induced IL-17 synthesis in PBMC,"[3]; IL-15 5 ng/ml, 48 h, Cefazolin 20-1000 μM, vs IL-15 stimulated control cells",significantly reduces
same,effect of increasing Cefazolin concentration on IL-15-induced IL-17 synthesis,[3]; increase of concentration from 200 μM to 1000 μM,does not affect IL-17 synthesis to any great extent
same,effect on IL-2-induced IL-17 synthesis in PBMC,[4],Strong inhibitory effect
same,cytotoxic or apoptotic activity on PBMC,PBMC,does not trigger the apoptotic pathway
same,bactericidal activity against Gram-positive bacteria,Gram-positive bacteria,Potent bactericidal activity
same,crossing of the blood brain barrier,[5]; in vivo,does not cross the blood brain barrier
same,"excreted in urine of unchanged structure, share of the excreted amount","[5]; urine, glomerular filtration",90%
